Experimental findings from patent US5106762A, “Ligand-label conjugates which contain polyoxoanions of sulfur or phosphorus” (Georgetown University, priority 1990, dated 1992) are described below.

In data set [1] the test system is murine monoclonal anti-DNP antibody #51. Kind of data set: Binding of DNP-conjugates to anti-DNP-Sepharose. The settings on record: for binding to anti-DNP-Sepharose after extensive washing (FIG. 3): 3:1 molar ratio of conjugate to immobilized antibody; for amount specifically bound to the antigen binding sites of immobilized antibody #51: after subtraction of non-specific binding to non-immune IgG-Sepharose; for DNP-Conjugate Bound / Ratio of Bound DNP-Conjugate to Immobilized IgG: binding to anti-DNP IgG1; for DNP-Conjugate Bound: applied conjugate to immobilized IgG 3.0 moles/moles, insulin conjugates 125I-labeled; for Ratio of Bound DNP-Conjugate to Immobilized IgG: applied ratio 3.0. The method, then: (§1) Fluorescence intensity was measured on a SLM 8000 fluorimeter at 490 nm excitation and 519 nm emission. Individual fluorescence standard curves with known concentrations of the different DNP-fluorescein conjugates were used to calculate the amounts of DNP-conjugates from fluorescence units. Antibodies were coupled to tresyl chloride-activated Sepharose 4B (Sigma) at a concentration of 200 ug antibody/100 mg gel according to the manufacturer's recommendation. The amount of immobilized antibody was determined using a Coomassie blue assay as described in Ahmad et al, Anal. Biochem., vol. 148, pp 533-541 (1985). Peptide and protein determinations in fluid-phase were performed by UV absorbance at 280 nm, by the bicinchoninic acid method (Smith et al, Anal. Biochem., vol. 150, pp. 76-85 (1985)) using the Pierce BCA Protein Assay Reagent (Pierce), and by the Folin-Ciocalteau method (Lowry et al, J. Biol. chem., vol. 193, pp. 265 (1951)). The A-chain of bovine insulin (oxidized to the S-sulfonate form) (Sigma), the DNP-Ins conjugate, and the DNP-Ins-Flu conjugate were radiolabeled with Na^125 I (Amersham, Arlington Heights, IL) using immobilized chloramine-T (Iodo-Beads; Pierce, Rockford, IL) (Petrella et al, J. Immunol. Methods, vol. 104, pp. 159-172 (1987)).
(§2) Specific binding of the DNP-conjugates was determined with the murine monoclonal anti-DNP antibody #51 (Stanley et al, J. Immunol. Methods, vol. 64, pp. 119-132 (1983) and Steward et al, J. Immunol. Methods, vol. 78, pp. 173-190 (1985)) coupled to tresyl chloride-activated Sepharose 4B (anti-DNP-Sepharose) The monoclonal IgG1 antibody #51 (purified from ascites) was kindly provided by Dr. M. W. Steward (Dept. of Medical Microbiology, London School of Hygiene and Tropical Medicine, London, U.K.). Nonspecific binding was measured with Sepharose 4B-immobilized non-immune mouse IgG purified from mouse serum (Jackson ImmunoResearch Laboratories, West Grove, PA) (IgG-Sepharose). After removal of buffer by vacuum filtration on a scintered glass funnel, 50 mg aliquots of Sepharose 4B-antibody matrices were transferred to plastic conical vials and incubated with ^125 I-labeled DNP-insulin A-chain-fluorescein conjugate (1.6×10^6 cpm/nmole), or ^125 I-labeled DNP-insulin A-chain conjugate without attached fluorescein residues (3.3×10^6 cpm/nmole), or non-radiolabeled DNP-Lys-Fl at a 3 to 1 molar ratio of DNP-derivative to immobilized IgG in 10 mM phosphate/150 mM NaCl, pH 7.6, overnight at 4° C. on a rocking platform. Unbound conjugate was recovered by poking a hole in the bottom of the plastic vial with a 30 gauge needle, loading the vial on the top of a glass test tube, and centrifuging. Subsequent washing steps were performed with 150 μl of 10 mM phosphate/150 mM NaCl/0.1% (v/v) Triton X-100, pH 7.6. Aliquots of the solutions collected in the bottom of the test tubes after centrifugation were assayed for radioactivity or fluorescence.

Data set [2] is described as follows: Determination of fluorescence lifetime (variable frequency phase fluorimeter). Format: physicochemical. How it is done:
The fluorescence lifetime of the DNP-fluorescein conjugates was measured on an ISS Greg-200 variable frequency phase fluorimeter as described previously (Lakowicz et al, Biophys. J., vol. 46, pp. 463-477 (1984) and Gratton et al, Biophys. J., vol. 46, pp. 479-486 (1984)) using 1-chloro-bis-(phenylethynyl)anthracene (Aldrich) in ethanol (3.791 ns) as a reference (Thompson et al. Anal. Chem., vol. 60, pp. 670-674 (1988)). The resulting phase and modulation data for DNP-Ins-FL were fit to one, two, and three emissive components using a Simplex algorithm supplied by ISS. […] When the data were fit to a three component model, the third component was weak (<5%), poorly defined (1.1±3.2 ns), and gave no improvement in X^2. Therefore, a third component appears to be unnecessary to fit the data. Since the DNP moiety has the ability to quench the fluorescein emission, the data are best explained by two fluorescein residues being remote from and unquenched by the DNP group with the third fluorescein residue being closer and subject to quenching. In accord with this explanation is the observation that the fluorescence of the DNP-lysine-fluorescein derivative was substantially quenched as shown by its reduced quantum efficiency and subanosecond fluorescence lifetime.

In a further data set the test system is non-immune mouse IgG. Kind of data set: Nonspecific binding of DNP-conjugates to IgG-Sepharose. As to conditions: for DNP-Conjugate Bound / Ratio of Bound DNP-Conjugate to Immobilized IgG: binding to non-immune IgG; for DNP-Conjugate Bound: applied conjugate to immobilized IgG 3.0 moles/moles; for Ratio of Bound DNP-Conjugate to Immobilized IgG: applied ratio 3.0. The method, then:
as §1, §2

Data set [3] deals with immobilized monoclonal anti-DNP antibody #51. Kind of data set: Displacement of DNP-conjugates from immobilized monoclonal anti-DNP antibody by DNP-lysine. It counts as binding, murine. The settings on record: for Displacement of Antibody-Bound DNP-Conjugate by DNP-Lysine: ± S.D., free DNP-lysine to antibody-bound conjugate 2.0 (DNP-Lys-Fl) or 3.4 (DNP-Ins-Fl, DNP-Ins) mole/mole. The method, then: as §2
Aliquots of anti-DNP-Sepharose (50 mg) were incubated with ^125 I-labeled DNP-insulin A-chain, or ^125 I-labeled DNP-insulin A-chain-fluorescein, or DNP-lysine-fluorescein and washed with 10 mM phosphate/150 mM NaCl/0.1% (v/v) Triton X-100, pH 7.6 , as described above in Specific and Nonspecific Binding of DNP-Conjugates. […] Displacement was determined by assaying aliquots of the solutions collected in the bottom of the test tubes after centrifugation for radioactivity or fluorescence.

Turning to `O=C(O)c1cc(NC(=S)N[C@@H](CCCCNc2ccc([N+](=O)[O-])cc2[N+](=O)[O-])C(=O)O)ccc1-c1c2ccc(=O)cc-2oc2cc(O)ccc12` [DNP-Lys-Fl, DNP-lysine-fluorescein, reference compound], in data set [1], the “binding to anti-DNP-Sepharose after extensive washing (FIG. 3)” value is reported as 62.7%, the “amount specifically bound to the antigen binding sites of immobilized antibody #51” value is given as 0.4 mole conjugate/mole antibody, the “DNP-Conjugate Bound” value came to 0.37 ± 0.02 nmol and the “Ratio of Bound DNP-Conjugate to Immobilized IgG” value (shortened to “Ratio of Bound DNP-Conjugate”) is reported as 1.9 moles/moles. Further, the “fold difference in binding of DNP-Lys-Fl versus DNP-Ins-Fl to anti-DNP-Sepharose” value in data set [1] (3:1 molar ratio, after extensive washing) is reported as 1.6 fold. In addition, the fluorescence lifetime result in data set [2] (in words) is given as “subanosecond”. Moreover, in the data set on non-immune mouse IgG, the “non-specific binding of DNP-Lys-Fl to immobilized non-immune IgG relative to DNP-Ins-Fl” value is listed as “three-fold higher”, the “DNP-Conjugate Bound” value is 1.27 ± 0.07 nmol and the “Ratio of Bound DNP-Conjugate” value amounted to 1.5 moles/moles. Further, in data set [3], the “Displacement of Antibody-Bound DNP-Conjugate by DNP-Lysine” value is 0.45 ± 0.14 pmol.

In the case of “DNP-insulin A-chain-fluorescein [DNP-Ins-Fl]”, in data set [1], the “binding to anti-DNP-Sepharose after extensive washing (FIG. 3)” value is 38.8%, the “amount specifically bound to the antigen binding sites of immobilized antibody #51” value is listed as 0.7 mole conjugate/mole antibody, the “DNP-Conjugate Bound” value worked out at 0.11 ± 0.03 nmol and the “Ratio of Bound DNP-Conjugate” value amounted to 1.2 moles/moles. Moreover, in data set [2] (two component fit), the “fluorescence lifetime, shorter lifetime component” value is reported as 2.068±0.150 ns; the “fraction of first lifetime component” value stood at 64±7%; the “fraction of shorter lifetime component” value worked out at 36%. Besides, in data set [2] (two component fit, X^2 =1.26), the “fluorescence lifetime, first component” value came to 4.091±0.177 ns. For the same compound, in the data set on non-immune mouse IgG, the “DNP-Conjugate Bound” value was determined as 0.44 ± 0.16 nmol and the “Ratio of Bound DNP-Conjugate” value is reported as 0.5 moles/moles. Moreover, the “non-specific binding of DNP-Ins-Fl relative to DNP-Lys-Fl” value with non-immune mouse IgG (see Table II) is recorded as “about one-third”. In data set [3], the “efficiency of displacement by DNP-lysine relative to DNP-Ins” value is reported as “two-fold more efficient” and the “Displacement of Antibody-Bound DNP-Conjugate by DNP-Lysine” value turned out to be 3.20 ± 0.70 pmol. In data set [3] (under comparable conditions), the “efficiency of displacement by DNP-lysine relative to DNP-Lys-Fl” value was “much more efficient”.

In the case of dinitrophenyl-insulin A-chain [DNP-Ins], in data set [1], the “DNP-Conjugate Bound” value stood at 0.11 ± 0.01 nmol and the “Ratio of Bound DNP-Conjugate” value worked out at 1.2 moles/moles. The “Displacement of Antibody-Bound DNP-Conjugate by DNP-Lysine” value in data set [3] amounted to 1.56 ± 0.01 pmol.
